Consider 22 compounds from patent US20260027118A1, “COMPOSITIONS USEFUL FOR MODULATING SPLICING” (Skyhawk Therapeutics, Inc., priority 2022, published 2026).

Assay [1] concerns ATXN3 transcripts containing exon 4. Nature of the assay: ATXN3 Quantitative Splicing Assay (qPCR, E4E5 primers/probe). The assay is classed as cell-based, Human. To be noted: Homo sapiens; SK-N-MC cells, treated with compounds for 24 h, qPCR of transcripts containing exon 4. The protocol:
Human neuroblastoma SK-N-MC cells were plated in 384-well plates at 20,000 cells/well. Twenty-four hours after plating, cells were treated with compounds for 24 h at appropriate concentrations ranging from 30.M to 0.6 nM (0.300 DMS0). Treated cells were lysed in 15 μL of lysis buffer, and cDNA was synthesized using the Fast Advanced Cells-to-Ct kit. Two μL of each cDNA was used in qPCR reactions to confirm the exon 4 skipped transcripts of ATXN3. A second set of primers/probe E4E5 was used to detect the transcripts containing exon 4. The third set of primers/probe E8E9 was used to detect total gene level of ATXN3. The qPCR reactions were prepared in 384-well plates in 10 μL volume, using TaqMan™ Fast Advanced Master Mix with primers and probes shown in the table below. Reactions were run in a Quant Studio 6 qPCR instrument with default settings.
The primers and probes are listed below in Table 4.
(Real-time PCR tracks product formation cycle by cycle.)

A further assay relates to total ATXN3 protein. Nature of the assay: ATXN3 total protein assay (Mesoscale Discovery). The format is cell-based, Human. The following applies: SK-N-MC cells, 48 hours incubation, MSD assay. The protocol: Human neuroblastoma SK-N-MC cells were seeded at 10,000 cells/well in 384 well plates one day prior to compound treatment. The concentrations of compounds were tested at appropriate doses ranging from 30 μM to 0.6 nM. After incubation for 48 hours, the cells were lysed with 25 μL of lysis buffer containing protease inhibitors, and total ATXN3 protein levels were assessed by Mesoscale Discovery (MSD) assay developed with one pair of anti-ATXN3 antibodies. The capture and detect antibodies were raised in mouse and rabbit respectively. Anti-rabbit MSD-ST antibody was used for secondary antibody. ATXN3 recombinant protein was used for standards. The readouts were captured with 35 μL of MSD read buffer and multi-array 384-well high binding plates.

The test system of the next assay is ATXN3-HiBiT protein. Nature of the assay: ATXN3 HiBiT assay (Nano Glo HiBiT luminescence). The assay is classed as cell-based. To be noted: Kelly-ATXN3-HiBiT cells, luminescence read out 48 h after addition of the compound. The source says: To monitor ATXN3 protein levels by luminescence, a Kelly-ATXN3-HiBiT cell line with homozygous knock-in of HiBiT at the C-terminus of the endogenous ATXN3 gene was used (knock-in of the HiBiT-tag coding sequence SEQ ID NO. 14: 5′[…]3′ into exon 11 of ATXN3 -position 1114 of ATXN3 RefSeq NM_004993.6). Manipulations of the Kelly-ATXN3-HiBiT cell line that result in downregulation of the ATXN3-HiBiT protein (through modulation of ATXN3-HiBiT pre-mRNA splicing) can be followed by monitoring the luminescence signal of the HiBiT tag using the Nano Glo HiBiT Lytic Detection System (Promega, #N3050). Kelly-ATXN3-HiBiT cells were maintained in RPMI 1640 w/Glutamax (Gibco, #61870010), 10% FBS (Sigma Aldrich, #F8687), 1% Penicillin/Streptomycin (Gibco, #15140-122) at 37° C., 5% CO2. To assess HiBiT-luminescence signal upon compound treatment, 2000 Kelly-ATXN3-HiBiT cells were seeded per well in 384 plate format. Compounds were added 24 h after seeding. ATXN3-HiBiT-luminescence signal was read out 48 h after addition of the compound using the Nano Glo HiBiT Lytic Detection System (Promega, #N3050) according to the manufacturer's instructions. To control for cell viability, an identically prepared sister plate was read out with the CellTiter-Glo® 2.0 Assay (Promega, #G9243) according to the manufacturer's instructions. Fold changes of ATXN3-HiBiT-luminescence and of CellTiter-Glo viability signals were calculated relative to a DMSO control condition.
On the technique in general: The HiBiT peptide binds its large partner to form an active luciferase.

Take `CC#Cc1c(C[C@@H](N)[C@H](C)F)oc2c(NCc3ccccc3)cc(Cl)nc12` [Compound 11, 2-[(2R,3S)-2-amino-3-fluorobutyl]-7-benzylamino-5-chloro-3-(1-propynyl)-1-oxa-4-azaindene]: the IC50 fell in the range of 0.01 to 100 nM in assay [1] and 101 to 500 nM with total ATXN3 protein. Further, the EC50 in the assay on ATXN3-HiBiT protein is 0.01 to 100 nM.

For `CC#Cc1cc(NCc2cccs2)c2oc(C[C@@H](N)C3CC3)c(C#CC)c2n1` [Compound 25, 2-[(R)-2-amino-2-cyclopropylethyl]-3,5-bis(1-propynyl)-7-thenylamino-1-oxa-4-azaindene], the IC50 (in assay [1]; in the assay with total ATXN3 protein) was 10000 to 40000 nM in each case. In addition, the EC50 in the assay on ATXN3-HiBiT protein was 5000 to 10000 nM.

As for `C[C@H](N)Cc1oc2c(NCc3cccs3)cc(Cl)nc2c1C#CCO` [Compound 26, 3-{2-[(S)-2-aminopropyl]-5-chloro-7-thenylamino-1-oxa-4-aza-3-indenyl}-2-propyn-1-ol], the results for the IC50 (in assay [1]; in the assay on total ATXN3 protein) were 101 to 500 nM and 501 to 5000 nM, respectively. In the assay with ATXN3-HiBiT protein, this compound yielded an EC50 of 101 to 500 nM.

For `CCC#Cc1c(C[C@H](C)N)oc2c(NCc3cccs3)cc(Cl)nc12` [Compound 16, 2-[(S)-2-aminopropyl]-3-(1-butynyl)-5-chloro-7-thenylamino-1-oxa-4-azaindene], the IC50 (in assay [1]; in the assay with total ATXN3 protein) was 101 to 500 nM throughout. The same compound yielded an EC50 in the assay with ATXN3-HiBiT protein of 101 to 500 nM.

In the case of `CC#Cc1c(C[C@H](C)N)oc2c(NCc3cccs3)cc(Cl)nc12` [Compound 1, 2-[(S)-2-aminopropyl]-5-chloro-3-(1-propynyl)-7-thenylamino-1-oxa-4-azaindene], the IC50 (in assay [1]; in the assay on total ATXN3 protein) was 101 to 500 nM each time. Further, in the assay with ATXN3-HiBiT protein, the EC50 fell in the range of 101 to 500 nM.

In the case of `C[C@H](N)Cc1oc2c(NCc3ccco3)cc(Cl)nc2c1C#CC1CC1` [Compound 9, 2-[(S)-2-aminopropyl]-5-chloro-3-(2-cyclopropylethynyl)-7-(furfurylamino)-1-oxa-4-azaindene], the IC50 (in assay [1]; in the assay with total ATXN3 protein) was 501 to 5000 nM throughout. For the same compound, the EC50 in the assay with ATXN3-HiBiT protein lay in the range of 501 to 5000 nM.

With `C[C@H](N)Cc1oc2c(NCc3cccs3)cc(Cl)nc2c1C#CCF` [Compound 19, 2-[(S)-2-aminopropyl]-5-chloro-3-(3-fluoro-1-propynyl)-7-thenylamino-1-oxa-4-azaindene], the IC50 (in assay [1]; in the assay on total ATXN3 protein) was 101 to 500 nM throughout. This compound gave an EC50 in the assay on ATXN3-HiBiT protein of 101 to 500 nM.

As for `CC#Cc1c(C(F)(F)[C@H](C)N)oc2c(NCc3cccs3)nc(Cl)nc12` [Compound 33, 2-[(S)-2-amino-1,1-difluoropropyl]-5-chloro-3-(1-propynyl)-7-thenylamino-1-oxa-4,6-diazaindene], the IC50 was 101 to 500 nM in assay [1] and 501 to 5000 nM in the assay on total ATXN3 protein. This compound showed an EC50 in the assay on ATXN3-HiBiT protein of 101 to 500 nM.

In the case of `CC#Cc1c(C[C@@H](N)[C@H](C)F)oc2c(NCc3nccs3)cc(Cl)nc12` [Compound 12, 2-[(2R,3S)-2-amino-3-fluorobutyl]-5-chloro-3-(1-propynyl)-7-{[(1,3-thiazol-2-yl)methyl]amino}-1-oxa-4-azaindene], the values for the IC50 (in assay [1]; with total ATXN3 protein) were 0.01 to 100 nM and 101 to 500 nM, respectively. In the assay with ATXN3-HiBiT protein, the EC50 lay within 0.01 to 100 nM.

On to `C[C@H](F)[C@H](N)Cc1oc2c(NCc3cccs3)cc(Cl)nc2c1C#CC1CC1` [Compound 8, 2-[(2R,3S)-2-amino-3-fluorobutyl]-5-chloro-3-(2-cyclopropylethynyl)-7-thenylamino-1-oxa-4-azaindene], for which the IC50 is 101 to 500 nM in assay [1] and 501 to 5000 nM in the assay on total ATXN3 protein. This compound registered a concentration for a half-maximal effect (EC50) with ATXN3-HiBiT protein of 101 to 500 nM.

As for `C[C@H](N)Cc1oc2c(NCc3ccco3)cc(Cl)nc2c1C#CCO` [Compound 27, 3-{2-[(S)-2-aminopropyl]-5-chloro-7-(furfurylamino)-1-oxa-4-aza-3-indenyl}-2-propyn-1-ol], the IC50 (in assay [1]; with total ATXN3 protein) was 501 to 5000 nM throughout. In the assay on ATXN3-HiBiT protein, this compound displayed an EC50 of 501 to 5000 nM.

Turning to `CC#Cc1c(C[C@@H](N)[C@H](C)F)oc2c(NCc3ccco3)nc(Cl)nc12` [Compound 41, 2-[(2R,3S)-2-amino-3-fluorobutyl]-5-chloro-7-(furfurylamino)-3-(1-propynyl)-1-oxa-4,6-diazaindene], the concentration for half-maximal inhibition (IC50) (in assay [1]; in the assay on total ATXN3 protein) was 0.01 to 100 nM throughout. In addition, in the assay with ATXN3-HiBiT protein, the EC50 was in the range of 0.01 to 100 nM.

Turning to `CCC#Cc1c(C[C@H](C)N)oc2c(NCc3ccco3)cc(Cl)nc12` [Compound 22, 2-[(S)-2-aminopropyl]-3-(1-butynyl)-5-chloro-7-(furfurylamino)-1-oxa-4-azaindene], the figures for the IC50 (in assay [1]; with total ATXN3 protein) were 101 to 500 nM and 501 to 5000 nM, respectively. In the assay with ATXN3-HiBiT protein, the EC50 was in the range of 501 to 5000 nM.

As for `CC#Cc1cc(NCc2cccs2)c2oc(C[C@@H](N)C3CC(F)(F)C3)c(C#CC)c2n1` [Compound 23, 2-[(R)-2-amino-2-(3,3-difluorocyclobutyl)ethyl]-3,5-bis(1-propynyl)-7-thenylamino-1-oxa-4-azaindene], the IC50 in assay [1] was in the range of 5000 to 10000 nM; in the assay on total ATXN3 protein, 10000 to 40000 nM. This compound also gave an EC50 in the assay on ATXN3-HiBiT protein of 501 to 5000 nM.

On to `CC#Cc1c(C[C@@H](N)COC)oc2c(NCc3nccs3)cc(Cl)nc12` [Compound 38, 2-[(R)-2-amino-3-methoxypropyl]-5-chloro-3-(1-propynyl)-7-{[(1,3-thiazol-2-yl)methyl]amino}-1-oxa-4-azaindene], for which the half-inhibitory concentration (IC50) (in assay [1]; in the assay with total ATXN3 protein) was 101 to 500 nM throughout. Also, the EC50 with ATXN3-HiBiT protein was in the range of 101 to 500 nM.

For the compound `C[C@H](N)Cc1oc2c(NCc3cccs3)cc(Cl)nc2c1C#CC1CC1` [Compound 10, 2-[(S)-2-aminopropyl]-5-chloro-3-(2-cyclopropylethynyl)-7-thenylamino-1-oxa-4-azaindene], the IC50 (in assay [1]; in the assay with total ATXN3 protein) was 501 to 5000 nM in each case. This compound also yielded an EC50 with ATXN3-HiBiT protein of 501 to 5000 nM.

Regarding `CC#Cc1c(C[C@@H](N)C2CC2)oc2c(NCc3cccs3)cc(Cl)nc12` [Compound 24, 2-[(R)-2-amino-2-cyclopropylethyl]-5-chloro-3-(1-propynyl)-7-thenylamino-1-oxa-4-azaindene], the IC50 (in assay [1]; with total ATXN3 protein) was 501 to 5000 nM in each case. Besides, the EC50 in the assay with ATXN3-HiBiT protein fell in the range of 501 to 5000 nM.

In the case of `CC#Cc1c(C[C@@H](N)[C@H](C)F)oc2c(NCc3ccco3)cc(Cl)nc12` [Compound 5, 2-[(2R,3S)-2-amino-3-fluorobutyl]-5-chloro-7-(furfurylamino)-3-(1-propynyl)-1-oxa-4-azaindene], the IC50 (in assay [1]; with total ATXN3 protein) was 0.01 to 100 nM each time. In the assay on ATXN3-HiBiT protein, this compound showed an EC50 of 0.01 to 100 nM.

In the case of `CC#Cc1c(C[C@@H](N)C2CC(F)(F)C2)oc2c(NCc3cccs3)cc(Cl)nc12` [Compound 15, 2-[(R)-2-amino-2-(3,3-difluorocyclobutyl)ethyl]-5-chloro-3-(1-propynyl)-7-thenylamino-1-oxa-4-azaindene], the IC50 (in assay [1]; in the assay on total ATXN3 protein) was 501 to 5000 nM throughout. The compound further came in with an EC50 in the assay on ATXN3-HiBiT protein of 501 to 5000 nM.

For `CC#Cc1c(C[C@H](C)N)oc2c(NCc3cccs3)c(F)c(Cl)nc12` [Compound 36], the IC50 (in assay [1]; in the assay on total ATXN3 protein) was 501 to 5000 nM each time. Besides, the EC50 in the assay with ATXN3-HiBiT protein is 501 to 5000 nM.

Consider `CC#Cc1c(C[C@@H](N)[C@H](C)F)oc2c(NCc3cccs3)cc(Cl)nc12` [Compound 6, 2-[(2R,3S)-2-amino-3-fluorobutyl]-5-chloro-3-(1-propynyl)-7-thenylamino-1-oxa-4-azaindene], for which the IC50 (in assay [1]; in the assay with total ATXN3 protein) was 0.01 to 100 nM each time. For the same compound, the EC50 in the assay on ATXN3-HiBiT protein was in the range of 0.01 to 100 nM.

As for `[2H]C([2H])(OC)[C@H](N)Cc1oc2c(NCc3cccs3)cc(Cl)nc2c1C#CC` [Compound 46, 2-[(R)-2-amino-3-methoxy(3,3- ^2H2)propyl]-5-chloro-3-(1-propynyl)-7-thenylamino-1-oxa-4-azaindene], the IC50 in assay [1] lay within 0.01 to 100 nM; in the assay with total ATXN3 protein, 101 to 500 nM. Also, in the assay with ATXN3-HiBiT protein, the EC50 was 0.01 to 100 nM.

The term IC50 denotes the concentration that gives 50% inhibition. A word on the EC50: it is the concentration at which the effect is half-maximal. Low values mean greater potency, high ones weaker potency.
